# Test results from patent publication US12522584B2, “3,4-dihydroisoquinoline compound and use thereof” (CSPC Zhongqi Pharmaceutical Technology (Shijiazhuang) Co., …, priority 2020, dated 2026).
# Marks after values point to notes of the source that are not given here.
# Columns and labels:
# [1] = molecular target: PRMT5 (Homo sapiens (Human), UniProt O14744); experiment: radiometric assay for PRMT5 based on FlashPlate technology; type: biochemical; details: PRMT5 5 nM, [3H]-SAM, 60 min at 25° C.; read-out: Enzymology (IC50)
# Protocol: The radiometric assay for PRMT5 based on FlashPlate technology was adopted to determine IC50 of the test compound.
# After dissolved in dimethyl sulfoxide respectively, the test compounds were added into an Echo Qualified 384-well plate and diluted to the desired concentrations. The diluted test compounds were transferred from the Echo Qualified 384-well plate to a 384-well reaction plate using an Echo 550 instrument, and dimethyl sulfoxide was transferred into both the control and blank wells. PRMT5 was added to 1×reaction buffer (including 10 mM Tris-HCl; pH 8.0; 0.01% Tween-20; 1 mM DTT) to form a 1.67×enzyme solution (at an enzyme concentration of 5 nM). A polypeptide substrate and [3H]-SAM were added to 1× reaction buffer to form a 2.5× substrate solution (the terminal concentrations of the substrates were 100 nM and 250 nM, respectively). At a volume of 15 μL/well, the 1.67× enzyme solution was added into wells of the 384-well reaction plate. In case of the blank wells, the enzyme solution was replaced with 15 μL of the 1× reaction buffer. The reaction plate was centrifuged at 1000 rpm for 1 min, and incubated at room temperature for 15 min. To each well of the 384-well reaction plate, 10 μL of the 2.5× substrate solution was added, centrifuged at 1000 rpm for 1 min, and reacted at 25° C. for 60 min. To each well of the 384-well reaction plate, 5 μL of reaction stop solution (which was […] cold SAM solution) was added to terminate the reaction. From each well of the test plate, 25 μL was measured and transferred to Flashplate and left at room temperature for 1 h. Thereafter, the Flashplate was washed with 0.1% Tween-20 solution three times. Readings were taken with MicroBeta 2. The data was converted into the inhibition rate data. Inhibition rate=(conversion ratecontrol well−conversion ratecompound well)/(conversion ratecontrol well−conversion rateblank well)×100%. The IC50curves were fitted using XLFit5.4.0.8. The fitting equation was as follows:Y=Bottom+(Top-Bottom)/(1+(IC50/X)^HillSlope).
# [2] = test system: human acute monocytic leukemia cell line MV4-11; experiment: MV4-11 MTT cell growth inhibition; type: cell-based; details: 144 h, MV4-11 cells, MTT on Day 6
# Protocol: The complete medium required for the culture of human acute monocytic leukemia cell line MV4-11 (Shanghai Cell Bank) for experiment was IMDM (Cat NO. 12440-053, gibco) supplemented with 10% FBS (Cat NO. SA311.02, cellmax). The cells were cultured in an incubator at 37° C. with 5% CO2. The experiment reagents included dimethyl sulfoxide (Tianjin Kemiou Chemical Reagent Co., Ltd.) and MTT (THIAZOLYL BLUE TETRAZOLIUM BROMIDE, CAS. NO. 298-93-1, VWR). The control compound GSK3326595 for experiment was homemade or commercially available. The test compound was encapsulated and stored at 4° C.
# Dimethyl sulfoxide was used as a vehicle to fully dissolve the test compound, thereby formulating a stock solution at a concentration of 5×10^−2 mol/L. The stock solution was stored at −20° C. With the complete medium as diluent, the test compound was subjected to gradient dilution to afford dilutions at different concentrations for standby application. In a 96-well culture plate, the suspension of the human acute monocytic leukemia cell line MV4-11 in the complete medium, at a volume of 100 μL/well (2×10^3 cells/well), was added. Afterwards, the dilutions at different concentrations of the corresponding test compounds (100 μL/well) were added, respectively. Each of the test compounds was provided with 8 concentration gradients and three replicates were used for each concentration. The plates were incubated in an incubator at 37° C. with 5% CO2. On Day 6, the plate was treated with MTT (20 μL/well) and incubated for 4 h in an incubator at 37° C. with 5% CO2. The supernatant was discarded. Dimethyl sulfoxide (150 μL/well) was added and mixed well by shaking. The OD value at 550 nm was measured with a microplate reader. Wells containing only cell suspensions without the test compounds were control wells, and wells containing only complete media were blank wells. The cell growth inhibition rate was calculated according to the following equation: Inhibition rate=(OD valuecontrol well−OD valuesample well)/(OD valuecontrol well−OD valueblank well)×100%. According to the inhibition rate at each concentration, the half maximal inhibitory concentration IC50 value was calculated using the SPSS software. 2. Enzymatic Experiment
# [3] = test system: MV4-11 xenografts; experiment: In vivo efficacy in MV4-11 subcutaneous xenograft model; details: for d9 Tumor Volume (mm^3): 9th day after administration; for Tumor Weight / Tumor weight inhibition rate (%): 11 days; for Tumor Weight: tumors dissected at end; for Tumor weight inhibition rate (%): versus vehicle group; for d0 Tumor Volume (mm^3): d0, before grouping for administration (baseline); for RTV (d9): relative tumor volume = d9/d0 tumor volume
# Protocol: Experimental female NOD-SCID mice, SPF grade, 4 to 5 weeks, were purchased from Beijing Vital River Laboratory Animal Technology Co., Ltd. The mice were intraperitoneally injected with cyclophosphamide at a dose of 100 mg/kg one day before cell inoculation. The human acute monocytic leukemia cell line MV4-11 (1×10^7/0.1 ml/mouse) was subcutaneously inoculated into forelimb axilla of mice to establish a subcutaneous xenograft model. When the tumor volumes reached about 110 mm^3 (10 days after inoculation), the mice were equally grouped according to the tumor volume, with 5 mice in each group, i.e., vehicle group (2% DMSO+98% (0.2 g/mL) hydroxypropyl-β-cyclodextrin) and test drug groups. For the test drug groups, the dose of administration was 100 mg/kg, the dosing volume was 10 mL/kg, the dosing frequency was BID, the tumor diameters were measured twice per week, and the data was recorded. The mice were administered for 11 consecutive days. When the experiment ended, the tumors were dissected and weighed.
# [4] = in vivo; details: male, SD, rat, po, 25 mg/kg
# Protocol: SD rats (male, 180 g to 200 g, Beijing Vital River Laboratory Animal Technology Co., Ltd.) were administered with the test compounds (solvent: 2% DMSO+98% (0.2 g/mL) hydroxypropyl-β-cyclodextrin, dosing volume: 5 mL/kg) by gavage. Blood was collected from the orbits of the rats at different points in time (0.25, 0.5, 1, 2, 4, 8, 24 h) after administration. The collected whole blood was anticoagulated with heparin sodium and centrifuged at 3000 g to obtain rat plasma samples, and methanol was added thereto to precipitate proteins. The drug concentration in rat plasma after administration was determined by HIPLC-MS/MS method. A drug concentration-time curve was plotted and the pharmacokinetic parameters were calculated. Pharmacokinetic behaviors of the compounds after administration in rats were described by means of the parameter estimation of non-compartmental model based on statistical moment theory.
# Chain of PRMT5 (O14744 whole entry): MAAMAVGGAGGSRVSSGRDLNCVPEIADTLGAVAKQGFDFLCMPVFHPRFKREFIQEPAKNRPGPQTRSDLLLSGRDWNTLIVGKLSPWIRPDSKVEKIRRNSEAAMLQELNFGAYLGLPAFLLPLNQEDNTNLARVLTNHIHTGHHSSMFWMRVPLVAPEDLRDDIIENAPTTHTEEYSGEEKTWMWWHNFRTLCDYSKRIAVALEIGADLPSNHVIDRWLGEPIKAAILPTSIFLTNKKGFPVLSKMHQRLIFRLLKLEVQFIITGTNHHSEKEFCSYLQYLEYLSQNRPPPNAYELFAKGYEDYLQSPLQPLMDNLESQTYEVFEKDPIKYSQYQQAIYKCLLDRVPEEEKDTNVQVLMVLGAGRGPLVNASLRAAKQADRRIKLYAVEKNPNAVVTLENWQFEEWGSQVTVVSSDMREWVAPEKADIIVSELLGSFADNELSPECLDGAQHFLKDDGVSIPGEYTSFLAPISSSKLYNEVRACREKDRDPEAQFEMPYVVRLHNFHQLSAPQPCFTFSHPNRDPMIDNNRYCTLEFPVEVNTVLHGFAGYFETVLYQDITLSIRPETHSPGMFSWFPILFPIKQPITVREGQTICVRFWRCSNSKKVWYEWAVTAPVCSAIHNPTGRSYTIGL
# Chain of PRMT5 (Q9BQA1 whole entry partner): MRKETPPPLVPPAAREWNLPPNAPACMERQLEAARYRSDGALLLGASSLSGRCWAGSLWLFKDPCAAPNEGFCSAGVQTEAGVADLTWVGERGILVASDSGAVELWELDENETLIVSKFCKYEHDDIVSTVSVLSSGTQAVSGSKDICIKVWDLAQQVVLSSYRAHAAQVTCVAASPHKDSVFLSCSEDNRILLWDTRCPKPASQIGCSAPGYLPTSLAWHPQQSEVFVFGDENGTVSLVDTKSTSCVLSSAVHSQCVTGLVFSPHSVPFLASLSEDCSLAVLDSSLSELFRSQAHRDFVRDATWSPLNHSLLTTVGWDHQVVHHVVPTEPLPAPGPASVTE
Compound,IC50 [1],IC50 [2],d9 Tumor Volume (mm^3) ([3]; 100 mg/kg BID),Tumor Weight ([3]; 100 mg/kg BID),Tumor weight inhibition rate (%) ([3]; 100 mg/kg BID),"animal death / drug toxicity observation ([3]; 100 mg/kg BID, one animal died due to incorrect gavage)",d0 Tumor Volume (mm^3) [3],RTV (d9) ([3]; 100 mg/kg BID),AUC(0-t) [4],Cmax [4],Tmax [4]
"CON=C(C)C(=O)N1CC2(CC(Nc3cc(C(=O)NC[C@H](O)CN4CCc5ccccc5C4)ncn3)C2)C1 [PR-10, (S)-N-(3-(3,4-dihydroisoquinolin-2(1H)-yl)-2-hydroxypropyl)-6-((2-(2-(methoxyimino)propanoyl)-2-azaspiro[3.3]heptan-6-yl)amino)pyrimidine-4-carboxamide]",16 nM,0.664 nM,34.3 ± 29.2**## mm^3,0.0153 ± 0.0105 g,97.9%,the death was not caused by drug toxicity,164.8 ± 32.5 mm^3,0.2 ± 0.2,2040 ng·h/mL,1340 ng/mL,25 min
"CON=C(C)C(=O)N1CCC2(CC1)CC(Nc1cc(C(=O)NC[C@H](O)CN3CCc4ccccc4C3)ncn1)C2 [PR-13, (S)-N-(3-(3,4-dihydroisoquinolin-2(1H)-yl)-2-hydroxypropyl)-6-((7-(2-(methoxyimino)propanoyl)-7-azaspiro[3.5]nonan-2-yl)amino)pyrimidine-4-carboxamide]",16 nM,1.53 nM,69.7 ± 22.9***# mm^3,0.0679 ± 0.0225 g,90.6%,–,165.4 ± 30.2 mm^3,0.4 ± 0.1,840 ng·h/mL,516 ng/mL,50 min
